Compound | logP
O=C(O)CCCCCO/N=C(/c1ccccc1)c1ccnnc1 | 0.1
O=C(O)CCCCO/N=C(/c1ccccc1)c1cnccn1 | -0.23
O=C(O)CCCO/N=C(\c1ccccc1)c1ccnnc1 | -0.4
O=C(O)CCCO/N=C(/c1ccccc1)c1cnccn1 | -0.53
O=C(O)CCCCO/N=C(/c1ccccc1)c1cccnn1 | 0
O=C(O)CCCO/N=C(/c1ccccc1)c1cccnn1 | -0.27
O=C(O)CCCCCON=C(c1ccccc1)c1cnccn1 | 0.23
O=C(O)CCCCCO/N=C(/c1ccccc1)c1cccnn1 | -0.01
O=C(O)CCCCO/N=C(/c1ccccc1)c1ccnnc1 | -0.33

From the SangsterLogP compilation
